Earlier results on 1 molecule are cited in patent US10953021B2, “Topical compositions of flunisolide and methods of treatment” (Lupin Limited, priority 2013, dated 2021).

The structures appear in SMILES notation.

For series [1] the following is noted: animal anti-inflammatory assays, versus cortisol.
For series [2] the following is noted: McKenzie skin blanching test, versus dexamethasone.

For `CC1(C)O[C@@H]2C[C@H]3[C@@H]4C[C@H](F)C5=CC(=O)C=C[C@]5(C)[C@H]4[C@@H](O)C[C@]3(C)[C@]2(C(=O)CO)O1` [Flunisolide, 6α-fluoro-11β, 21-dihydroxy-16α,17α-(isopropylidenedioxy)pregna-1,4-diene-3,20-dione], the “anti-inflammatory potency relative to cortisol” value in series [1] is listed as “several hundred times more potent than cortisol”. For the same molecule, the “anti-inflammatory effects relative to dexamethasone” value in series [2] is listed as “several hundred times more potent than dexamethasone”.
